Several values for one entry are separate records, joined by “and”; a condition that tells them apart may be missing. Identical values can stand only once. Entries after “also recorded” stand apart in the source; their conditions may differ.
How the values were obtained:
[1] = system: cerebellar granule neurons; experiment: LK-induced death of cultured cerebellar granule neurons, viability by DAPI staining; format: cell-based, rat; details: for protection against LK-induced neuronal death (FIG. 1): 25 μM, phase contrast microscopy, DAPI-staining, TUNEL-staining; for neuroprotection against LK-induced neuronal death, in words: overall over 1, 5 and 25 μM
Description: Culturing and treatments of cerebellar granule neurons: Granule neuron cultures were obtained from dissociated cerebella of 6-7 day old Wistar rats as described previously (D'Mello et al., 1993). Cells were plated in Basal Eagle's Medium (BME) supplemented with 10% fetal calf serum (FCS), 25 mM KCl, 2 mM glutamine (Invitrogen), and 100 μg/ml gentamycin in poly-L-lysine coated 24-well dishes at a density 1×10^6 cells/well. Cytosine arabinofuranoside (10 μM) was added to the culture medium 18-22 h after plating to prevent replication of nonneuronal cells. Previous immunocytochemical analyses by our lab and other investigators have shown that these cultures have high purity containing over 95% granule neurons (Thangnipon et al., 2003; Kingsbury et al., 2005).
The neuronal cultures were maintained for 7-8 days prior to treatment. For treatment, the cells were rinsed once and then maintained in low K+ medium (serum-free BME medium; referred to as LK), or in the case of control cultures, in high K+ medium (serum-free BME medium supplemented with 20 mM KCl; referred to as HK). For treatments, the chemical compounds (dissolved in dimethylsulfoxide) were added directly to LK medium at the time of the switch from HK at concentrations of 1, 5, or 25 μM. Viability was assessed 24 hours by 4′,6′-diamidino-2-phenylindole hydrochloride (DAPI) staining (see below). Each compound was tested in duplicate (at each of the concentrations) and the experiment repeated at least 3 times.
The viability status of neuronal cultures treated with HK, LK, or LK medium supplemented with various compounds was evaluated by phase contrast microscopy and quantified by staining cell nuclei with DAPI as previously described (Yalcin et al., 2003; Morrison et al., 2006; Majzadeh et al., 2007)). Briefly, the cells were fixed in 4% paraformaldehyde for 20 min at 4° C. After washing in phosphate buffered saline, diamidino-2-phenylindole hydrochloride (DAPI; 1 μg/ml in phosphate buffered saline) was added for 15 min at room-temperature and viewed under ultraviolet light (260 nm). Cells with condensed or fragmented nuclei were scored as dead. Viability has been expressed as percent of control cultures, which were switched to HK medium). Statistical analysis was performed using an unpaired, two-tailed Student's T test, compared to mean neuronal survival of control cultures receiving LK treatment.
When cultured cerebellar granule neurons are switched from HK to LK medium about 50% of the cells underwent apoptosis within 24 h (D'Mello et al., 1993). The inventors utilized this widely used and recognized model to test a total of 20 different 1,4-benzoxazine derivatives for their ability to protect against LK-induced neuronal death. Each compound was tested at 3 different doses—1 μM, 5 μM and 25 μM and viability quantified by DAPI-staining. The highest does was included to test for possible toxicity effects of the compounds. Key results were confirmed using TUNEL staining, another reliable assay of apoptosis (FIG. 1). As shown in Table 1 and FIG. 1, the present invention identifies several compounds with significant neuroprotective effect. Two of the most protective compounds are HSB-13 and HSB-22, both with Ar=3′,5′-dibromo-4′-hydroxyphenyl (FIG. 1). […] Protection with this compound is lower than that observed with HSB-13 and HSB-22 at the two lower doses. […] To examine whether a higher level of protection could be observed at doses lower than 1 μM, the analyses of these compounds was extended to doses of 0.5, 0.25, and 0.1 μM.
When cultured cerebellar granule neurons are switched to LK medium, about 50% of the cells undergo apoptosis within 24 h. In this study, a total of 20 different 1,4-benzoxazine derivatives of the structure shown in FIG. 1 were tested for their ability to protect against LK-induced death of cerebellar granule neurons. Each compound was tested at 3 different doses —1 μM, 5 μM and 25 μM. […]

B-Raf = biological target: T1, B-Raf (Homo sapiens, UniProt P15056); experiment: In vitro kinase activity; format: biochemical; details: percentage of control assays without compound, mean of duplicate
T1 construct: in some cases SignalChem; host or cells: Sf9 insect cells (baculovirus)
T1 sequence (P15056 whole entry): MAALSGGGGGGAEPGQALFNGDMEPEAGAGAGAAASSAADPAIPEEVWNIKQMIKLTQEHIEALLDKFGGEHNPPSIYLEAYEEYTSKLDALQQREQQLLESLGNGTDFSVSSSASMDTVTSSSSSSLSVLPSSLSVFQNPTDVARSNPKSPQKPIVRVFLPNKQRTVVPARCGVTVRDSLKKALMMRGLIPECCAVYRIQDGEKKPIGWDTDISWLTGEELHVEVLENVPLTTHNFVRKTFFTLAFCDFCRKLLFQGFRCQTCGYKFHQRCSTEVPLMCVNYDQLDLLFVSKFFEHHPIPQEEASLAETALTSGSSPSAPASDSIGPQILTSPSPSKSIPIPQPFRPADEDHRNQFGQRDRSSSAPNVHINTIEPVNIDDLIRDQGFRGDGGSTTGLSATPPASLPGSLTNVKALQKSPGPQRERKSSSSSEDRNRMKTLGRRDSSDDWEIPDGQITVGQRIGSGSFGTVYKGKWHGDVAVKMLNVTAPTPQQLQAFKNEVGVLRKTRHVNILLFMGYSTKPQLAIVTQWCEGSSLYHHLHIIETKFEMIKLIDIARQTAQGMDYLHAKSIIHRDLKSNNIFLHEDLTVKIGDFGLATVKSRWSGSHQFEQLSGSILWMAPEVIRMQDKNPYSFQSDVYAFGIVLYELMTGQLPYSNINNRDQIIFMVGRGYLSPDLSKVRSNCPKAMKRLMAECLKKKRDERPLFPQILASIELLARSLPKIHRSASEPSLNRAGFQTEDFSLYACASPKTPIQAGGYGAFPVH
Description: To better understand the mechanism of action of the compounds of the present invention, but in no way a limitation; the effects of HSB-13 and ASK-2a on 20 different kinases were examined in vitro. At 500 nM concentration, ASK-2a inhibited the kinase activities of GSK3α, GSK3β, p38α, p38β, JNK3, MLK3, and B-Raf substantially. […] As described above, ASK-2a protects cerebellar granule neurons against LK-induced death but is ineffective against HCA-induced toxicity of HT-22 cells. In contrast, HSB-13 is protective in both paradigms. […] Previous studies have established that CDK inhibitors can protect neurons against a number of different apoptotic stimuli.
The activity of each kinase was measured in vitro in the presence either 100 nM or 500 nM ASK-2a. Kinase activity is expressed as a percentage of that in control assays (without ASK-2a). The values are mean of assays performed in duplicate. Substantial inhibition of kinase activity (>20%) is in bold type.
Table 3: Effect of HSB-13 at 500 nM on 20 different kinases measured in vitro. Kinase activity is expressed as a percentage of that in control assays (without HSB-13). The values are mean of assays performed in duplicate. Substantial inhibition of kinase activity (>20%) is in bold type.
Effect of chemical compounds c-Raf and B-Raf purified from insect cells. In vitro kinase assays were performed using purified kinase (expressed by baculovirus in Sf9 insect cells) and synthetic substrates under standard conditions using the Kinase Profiling service of Upstate Biotechnology. Briefly, for each assay 5-10 mU of purified kinase is incubated with the chemical compound (0.1-1 uM concentration) in a buffer containing 8 mM MOPS, pH 7.2, 0.2 mM EDTA, 10 mM Mg Acetate and [γ-^33P-ATP] for 40 min at room temperature. MBP is used as substrate. Kinase activity is quantified by measuring ^33P incorporation by spotting an aliquot on P30 filters, washing in 50 mM phosphoric acid and scintillation counting.
In some cases, effects on c-Raf and B-Raf are assayed by SignalChem as follows. Protein kinase assays (in duplicate or triplicate) were performed at ambient temperature for 20-40 minutes in a final volume of 25 μl. The assay was initiated by the addition of ^33P-ATP and the reaction mixture incubated at ambient temperature for 20-40 minutes, depending on the protein kinase target. After the incubation period, the assay was terminated by spotting 10 μl of the reaction mixture onto Multiscreen phosphocellulose P81 plate. The Multiscreen phosphocellulose P81 plate was washed 3 times for approximately 15 minutes each in a 1% phosphoric acid solution.
The radioactivity on the P81 plate was counted in the presence of scintillation fluid in a Trilux scintillation counter. Blank control is included all the assay components except the addition of the appropriate substrate (replace with equal volume of assay dilution buffer), was set up for each protein kinase target. The corrected activity for each protein kinase target was determined by removing the blank control value.

[2] = Table 1, 5 μM in LK medium, 24 h, % of survival in control cultures in HK medium, LK alone 48%
[3] = Table 1, 25 μM in LK medium, 24 h, % of survival in control cultures in HK medium, LK alone 48%
[4] = Table 4, 1 μM in LK medium, % of survival in HK control cultures, LK alone 48.16±8.44%
[5] = Table 4, 5 μM in LK medium, % of survival in HK control cultures, LK alone 48.16±8.44%
[6] = Table 4, 25 μM in LK medium, % of survival in HK control cultures, LK alone 48.16±8.44%

| Structure (SMILES) | protection against LK-induced neuronal death (FIG. 1) ([1]; 24 h) | % Survival ([1]; Table 1, 1 μM in LK medium, 24 h, % of survival in control cultures in HK medium, LK alone 48%) [%] | % Survival [1, 2] [%] | % Survival [1, 3] [%] | neuroprotection against LK-induced neuronal death, in words [1] | % ACTIVITY (B-Raf; 100 nM, 0.1 µM) [%] | % ACTIVITY (B-Raf; 100 nM, listed as ASK2a, 0.1 µM) | % Survival [1, 4] | % Survival [1, 5] | % Survival [1, 6] | % ACTIVITY (B-Raf; 500 nM) [%] |
| --- | --- | --- | --- | --- | --- | --- | --- | --- | --- | --- | --- |
| O=C1Nc2ccccc2OC1=Cc1cc(Br)c(O)c(Br)c1 [ASK-2a] | protective | 74.01 ± 6.93 | 80.84 ± 9.31 | 95.12 ± 3.28 | much higher neuroprotection than ASK2; also recorded: high level of neuroprotection; also recorded: effective in all the three concentrations | 79 | inhibited efficiently | – | – | – | – |
| Nc1ccc2c(c1)NC(=O)/C(=C/c1cc(Br)c(O)c(Br)c1)O2 [HSB-13, (Z)-6-amino-2-(3,′5′-dibromo-4′-hydrozybenzylidene)-2H-benzo[b][1,4]oxazin-3(4H)-one] | protective | – | 100.2 ± 2.25 | 95.1 ± 5.06 | highest neuroprotection; also recorded: effective in all the three concentrations | – | – | 83.1 ± 4.53 % | 100.8% and 100.8 ± 0.07 % | 99.5% and 99.5 ± 1.56 % | 43 |
| O=C1Nc2cc(Cl)ccc2O/C1=C\c1cc(Br)c(O)c(Br)c1 [HSB-22] | protective | – | 87.54 ± 8.83 | 91.24 ± 9.03 | effective in all the three concentrations | – | – | 92% and 91.9 ± 1.98 % | 97% and 96.7 ± 2.96 % | 90.6% and 90.6 ± 0.84 % | – |

Source: patent US8680094B2, “1, 4-benzoxazine compounds and derivatives thereof as therapeutic drugs for the treatment of neurodegenerative conditions” (Board of Regents, The University of Texas System, priority 2008, dated 2014)
